Data from ChEMBL document CHEMBL4219231, “Nε-Acryloyllysine Piperazides as Irreversible Inhibitors of Transglutaminase 2: Synthesis, Structure-Activity Relationships, and Pharmacokinetic Profiling” (J Med Chem, 2018).
In brackets after ≈: the same amount, converted by molar mass. Activity calls are given as the source filed them. No cut-off for these calls is given here.

Legend:
Homo sapiens [1] = organism: Homo sapiens; assay: Selectivity index, ratio of Kinact/Ki for human TGase 2 to Kinact/Ki for human TGase 3
[2] = molecular target: T1, Protein-glutamine gamma-glutamyltransferase (Homo sapiens, UniProt P21980); assay: Inhibition of human TGase 2 using R-I-Cad/DMC as substrate preincubated for 5 mins followed by substrate addition measured at 30 secs interval over 900 secs by fluorescence anisotropy assay
T1 sequence (P21980 whole entry): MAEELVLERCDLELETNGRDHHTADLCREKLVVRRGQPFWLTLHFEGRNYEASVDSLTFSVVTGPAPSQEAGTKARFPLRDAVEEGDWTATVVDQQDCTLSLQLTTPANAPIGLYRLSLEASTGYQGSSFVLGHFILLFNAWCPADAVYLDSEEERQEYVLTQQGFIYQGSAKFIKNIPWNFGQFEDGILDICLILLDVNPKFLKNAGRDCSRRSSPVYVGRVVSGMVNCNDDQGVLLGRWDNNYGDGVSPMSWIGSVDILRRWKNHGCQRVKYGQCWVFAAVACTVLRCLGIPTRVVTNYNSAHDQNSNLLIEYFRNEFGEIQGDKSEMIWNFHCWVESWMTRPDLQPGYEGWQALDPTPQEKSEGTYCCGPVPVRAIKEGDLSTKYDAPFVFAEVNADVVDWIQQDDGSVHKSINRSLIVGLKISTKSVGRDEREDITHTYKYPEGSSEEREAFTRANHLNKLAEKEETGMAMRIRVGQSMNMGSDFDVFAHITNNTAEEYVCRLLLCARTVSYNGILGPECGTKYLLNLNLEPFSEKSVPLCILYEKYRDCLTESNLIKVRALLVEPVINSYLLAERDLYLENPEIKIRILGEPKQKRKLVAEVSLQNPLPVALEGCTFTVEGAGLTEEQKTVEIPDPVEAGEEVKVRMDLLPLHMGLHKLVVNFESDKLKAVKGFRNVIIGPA

in vitro = details: PAMPA
Description: Effective permeability of the compound by PAMPA assay

[3] = Membrane retention, RM of the compound; format: physicochemical
[4] = molecular target: T1, Protein-glutamine gamma-glutamyltransferase; assay: Inhibition of TGase 2 in human A375 cells using R-I-Cad/DMC as substrate preincubated for 5 mins followed by substrate addition measured at 30 secs interval over 900 secs by fluorescence anisotropy assay; format: cell-based
[5] = Inhibition of guinea pig TGase 2 using F-Cad/DMC as substrate preincubated for 30 mins followed by substrate addition measured at 30 secs interval over 900 secs by fluorescence anisotropy assay; set-up: species or system Cavia porcellus
[6] = Chromatographic hydrophobicity index in immobilized artificial membrane at pH 7.4 by HPLC method; format: ADME, cell membranes
Homo sapiens [7] = organism: Homo sapiens; assay: Selectivity index, ratio of Kinact/Ki for human TGase 2 to Kinact/Ki for human TGase 1
[8] = Drug metabolism in mouse liver microsomes assessed as metabolic transformation at pyridylpiperazine moiety at 100 uM measured after 60 mins by EPI-mass spectroscopy; format: ADME, microsome; details: 1 h
[9] = n-octanol-phosphate buffer partition coefficient, log D of compound at pH 7.4 by 19F NMR analysis; format: physicochemical
Homo sapiens [10] = organism: Homo sapiens; assay: Selectivity index, ratio of Kinact/Ki for human TGase 2 to Kinact/Ki for human TGase 6
[11] = Metabolic stability in mouse liver microsomes assessed as parent compound remaining at 100 uM measured after 60 mins by HPLC-UV analysis; format: ADME, microsome; details: microsomes, 1 h, 100 µM
[12] = Thermodynamic solubility of the compound in 0.01 M phosphate buffer at pH 7.4 at 22 degC after 26 hrs by UPLC-DAD-MS analysis; format: physicochemical; details: read-out: Therm_solubility
[13] = molecular target: T1, Protein-glutamine gamma-glutamyltransferase; assay: Reversible inhibition of human TGase 2 using Z-Glu(HMC)-Gly-OH as substrate measured at 20 secs interval over 900 secs by fluorimetric assay
Homo sapiens [14] = organism: Homo sapiens; assay: Selectivity index, ratio of Kinact/Ki for human TGase 2 to Kinact/Ki for human Factor 13a
[15] = Thermodynamic solubility of the compound in 0.01 M phosphate buffer at pH 7.4 at 22 degC after 39 hrs by UPLC-DAD-MS analysis; format: physicochemical; details: read-out: Therm_solubility
[16] = molecular target: T2, Protein-glutamine gamma-glutamyltransferase (Homo sapiens) (UniProt P21980); assay: Irreversible inhibition of human TGase 2 using Z-Glu(HMC)-Gly-OH as substrate up to 25 uM measured at 20 secs interval over 900 secs by fluorimetric assay
T2 sequence (whole entry): T1 sequence (P21980 whole entry)

Row | Selectivity Index (Homo sapiens [1]) | IC50 [2] [nM] | Papp (in vitro) [×10⁻⁶ cm/s] | Rm [3] [%] | IC50 [4] [nM] | IC50 [5] [nM] | CHI [6] | Selectivity Index (Homo sapiens [7]) | Drug metabolism [8] | logD [9] | Selectivity Index (Homo sapiens [10]) | Stability [11] | solubility thermodynamic at 26 h [12] [µM] | Ki [13] [nM] | Selectivity Index (Homo sapiens [14]) | solubility thermodynamic at 39 h [15] [µM] | inhibition [16] | Structure (SMILES)
1 | 275 to 1920 | 110 | 13.3 | 14 | 1100 | 200 | 31.8 | 275 to 1920 | Metabolite_Detected | 2.1 | 275 to 1920 | Unstable | 645 (≈ 311 µg/mL) | 6280 | 275 to 1920 | – | – | C=CC(=O)NCCCC[C@H](NC(=O)Cc1ccccc1)C(=O)N1CCN(c2cccc(F)n2)CC1
2 | 275 to 1920 | 100 | 9.16 | 10 | 400 | 120 | 30.7 | 275 to 1920 | – | – | 275 to 1920 | – | – | 2260 | 275 to 1920 | 452 (≈ 230 µg/mL) | Active | C=CC(=O)NCCCC[C@H](NC(=O)Cc1ccccc1)C(=O)N1CCN(c2cccc([N+](=O)[O-])n2)CC1
